Source: patent publication US12215173B2, “Kappa opioid receptor peptide amide ligands” (priority 2019, dated 2025)
Where two headings read alike, the source gives them in different places. Square brackets hold non-standard residues; d marks the D form. Peptide text beside a SMILES is read from it. * marks the point of attachment. ξ: configuration not given here. Pyrrolidinyl(3-NH2,3-CO2Me) = COC(=O)C1(N)CCN(*)C1; Piperidin1yl(4-NH2,4-COOH) = NC1(C(=O)O)CCN(*)CC1; Pyrrolidino(3-NH2-3-COOH) = NC1(C(=O)O)CCN(*)C1; dAla(cPr) = N[C@H](CC1CC1)C(=O)O; dTic = O=C(O)[C@H]1Cc2ccccc2CN1; Aic = NC1(C(=O)O)Cc2ccccc2C1; ξL = CC(C)CC(N)C(=O)O

What was measured:
[1] = biological target: recombinant human kappa (KOR) opioid receptor (Homo sapiens (Human), UniProt P41145); assay: biochemical; format: binding
[2] = biological target: recombinant human mu (MOR) opioid receptor (Homo sapiens (Human), UniProt P35372); assay: Opioid receptor radioligand binding assay, MOR
[3] = biological target: recombinant human delta (DOR) opioid receptor (Homo sapiens (Human), UniProt P41143); assay: Opioid receptor radioligand binding assay, DOR
Chain of recombinant human delta (DOR) opioid receptor (P41143 whole entry, looked up): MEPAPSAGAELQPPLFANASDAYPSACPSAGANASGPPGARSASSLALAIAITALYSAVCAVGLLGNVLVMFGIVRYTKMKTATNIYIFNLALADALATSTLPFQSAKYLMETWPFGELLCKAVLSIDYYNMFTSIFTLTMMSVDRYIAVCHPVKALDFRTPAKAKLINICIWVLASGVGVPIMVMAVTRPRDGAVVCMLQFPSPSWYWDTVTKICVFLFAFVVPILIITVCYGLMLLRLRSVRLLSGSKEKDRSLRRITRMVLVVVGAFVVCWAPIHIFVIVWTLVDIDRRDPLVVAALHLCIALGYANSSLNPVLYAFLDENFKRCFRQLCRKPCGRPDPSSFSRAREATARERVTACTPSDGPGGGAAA

[4] = biological target: Opioid Kappa Receptor (recombinant human, HEK293 cells) (Homo sapiens (Human), UniProt P41145); assay: cell-based
[5] = HEK293 cell membranes, 0.5 nM [3H]diprenorphine
[6] = HEK293 cell membranes, 0.5 nM [3H]DAMGO, read-out: MOR, IC50
[7] = HEK293 cell membranes, 0.5 nM [3H]DADLE, read-out: DOR, IC50

Row | Compound | IC50 [1, 5] | IC50 [2] | IC50 [3] | EC50 ([4]; read-out: EC50) | IC50 [2, 6] | IC50 [3, 7] | IC50 [1] | EC50 [4]
1 | CC(C)C[C@@H](NC(=O)[C@@H](Cc1ccccc1)NC(=O)[C@H](N)Cc1ccccc1)C(=O)N[C@H](CCCCN)C(=O)N1CCN(C(=O)NC2CC2)CC1 [Compound 13-48] | 0.36 nM | > 10000 nM | > 10000 nM | 5.69 nM |  |  |  | 
2 | COC(=O)C1(N)CCN(C(=O)[C@@H](CCCCN)NC(=O)[C@@H](CC(C)C)NC(=O)[C@@H](Cc2ccccc2)NC(=O)[C@H](N)Cc2ccc(F)cc2)CC1 [Compound 184] |  |  |  | 6.26 nM |  |  |  | 
3 | CC(C)C[C@@H](NC(=O)[C@@H](Cc1ccccc1)NC(=O)[C@H](N)Cc1ccccc1)C(=O)N[C@H](CCCCN)C(=O)NC[C@H](N)C(=O)O [Compound 13-13] | 16.1 nM |  |  | 88.4 nM | > 10000 nM | > 10000 nM |  | 
4 | CC(C)C[C@@H](NC(=O)[C@@H](Cc1ccccc1)NC(=O)[C@H](N)Cc1ccccc1)C(=O)N[C@H](CCCCN)C(=O)N1CCC(NC(=O)[C@@H](N)CC(N)=O)CC1 [Compound 13-42] | 0.48 nM |  |  | 8.43 nM | > 10000 nM | > 10000 nM |  | 
5 | CC(C)C[C@@H](NC(=O)[C@@H](Cc1ccccc1)NC(=O)[C@H](N)Cc1ccccc1)C(=O)N[C@H](CCCCN)C(=O)N1CCC(NC(=O)/C=C\C(=O)NC(N)=O)CC1 [Compound 13-54] | 0.21 nM | 1530 nM | > 10000 nM | 15.1 nM |  |  |  | 
6 | CC(C)C[C@@H](NC(=O)[C@@H](Cc1ccccc1)NC(=O)[C@H](N)Cc1ccccc1)C(=O)N[C@H](CCCCN)C(=O)N(C)C[C@H](O)[C@@H](O)[C@H](O)[C@H](O)CO [Compound 13-50] | 0.37 nM |  |  | 12.2 nM | 1110 nM | > 10000 nM |  | 
7 | COC(=O)C1(N)CCN(C(=O)[C@@H](CCCNC(=N)N)NC(=O)[C@@H](CC2CC2)NC(=O)[C@@H](Cc2ccccc2)NC(=O)[C@H](N)Cc2ccccc2)C1 (stereo partly shown) [Compound 133] (H-[dF][dF][dAla(cPr)][dR]-{Pyrrolidinyl(3-NH2,3-CO2Me)}) | 1.3 nM |  |  | 9.64 nM | > 10000 nM | > 10000 nM |  | 
8 | CC(C)C[C@@H](NC(=O)[C@@H](Cc1ccccc1)NC(=O)[C@H](N)Cc1ccccc1)C(=O)N[C@H](CCCCN)C(=O)N1CCC(NC(=O)/C=C/C(=O)O)CC1 [Compound 13-20] | 1.44 nM |  |  | 18 nM | > 10000 nM | > 10000 nM |  | 
9 | CC(C)C[C@@H](NC(=O)[C@@H](Cc1ccccc1)NC(=O)[C@H](N)Cc1ccccc1)C(=O)N[C@H](CCCCN)C(=O)N1CCN(C(=O)C(=O)N(C)C)CC1 [Compound 13-26] | 1.83 nM |  |  | 10.2 nM | > 10000 nM | > 10000 nM |  | 
10 | CC(C)C[C@@H](NC(=O)[C@@H](Cc1ccccc1)NC(=O)[C@H](N)Cc1ccccc1)C(=O)N[C@H](CCCCN)C(=O)N1CCC(N)(C(=O)OCCO)C1 (stereo partly shown) [Compound 50] | 0.39 nM |  |  | 9.07 nM | 7530 nM | > 10000 nM |  | 
11 | CNC(=O)C(=O)NC1CCN(C(=O)[C@@H](CCCCN)NC(=O)[C@@H](CC(C)C)NC(=O)[C@@H](Cc2ccccc2)NC(=O)[C@H](N)Cc2ccccc2)CC1 [Compound 13-28] | 0.26 nM |  |  | 20.8 nM | > 10000 nM | > 10000 nM |  | 
12 | CC(C)C[C@@H](NC(=O)[C@@H](Cc1ccccc1)NC(=O)[C@H](N)Cc1ccccc1)C(=O)N[C@H](CCCCN)C(=O)N1CCN(C(=O)C(=O)NC2CC2)CC1 [Compound 13-23] | 0.79 nM |  |  | 8.58 nM | 318 nM | > 10000 nM |  | 
13 | CC(C)C[C@@H](NC(=O)[C@@H](Cc1ccccc1)NC(=O)[C@H]1Cc2ccccc2CN1)C(=O)N[C@H](CCCCN)C(=O)N1CCC(N)(C(=O)O)C1 (stereo partly drawn) [Compound 169] (H-[dTic][dF][dL][dK]-{Pyrrolidino(3-NH2-3-COOH)}) |  |  |  | 167 nM |  |  |  | 
14 | CC(C)C[C@@H](NC(=O)[C@@H](Cc1ccccc1)NC(=O)[C@H](N)Cc1ccccc1)C(=O)N[C@H](CCCCN)C(=O)NCc1ccc2c(c1)OCO2 [Compound 13-1] | 1.96 nM | 2080 nM | > 10000 nM | 42.2 nM |  |  |  | 
15 | CNCCOC(=O)C1(N)CCN(C(=O)[C@@H](CCCCN)NC(=O)[C@@H](CC(C)C)NC(=O)[C@@H](Cc2ccccc2)NC(=O)[C@H](N)Cc2ccccc2)C1 (stereo partly shown) [Compound 60] | 0.94 nM |  |  | 7.19 nM | > 10000 nM | > 10000 nM |  | 
16 | CC(C)C[C@@H](NC(=O)[C@@H](Cc1ccccc1)NC(=O)[C@H](N)Cc1ccccc1)C(=O)N[C@H](CCCCN)C(=O)NCc1cccc(C(=O)O)n1 [Compound 13-6] |  |  |  | 30.5 nM |  |  |  | 
17 | CC(C)C[C@@H](NC(=O)[C@@H](Cc1ccccc1)NC(=O)[C@H](N)Cc1ccccc1)C(=O)N[C@H](CCCCN)C(=O)NCC(=O)N1CCC(N)(C(=O)O)CC1 [Compound 67] (H-[dF][dF][dL][dK]G-{Piperidin1yl(4-NH2,4-COOH)}) | 24.8 nM | 5150 nM | > 10000 nM | 51.5 nM |  |  |  | 
18 | CC(C)C[C@@H](NC(=O)[C@@H](Cc1ccccc1)NC(=O)[C@H](N)Cc1ccccc1)C(=O)N[C@H](CCCCN)C(=O)N1CCC(NC(=O)C(=O)N(C)C)CC1 [Compound 13-16] | 0.37 nM |  |  | 19.4 nM | 215 nM | 2410 nM |  | 

Row | Compound | IC50 [1, 5] | IC50 [2] | IC50 [3] | EC50 ([4]; read-out: EC50) | IC50 [2, 6] | IC50 [3, 7] | IC50 [1] | EC50 [4]
19 | N=C(N)NCCC[C@@H](NC(=O)[C@@H](CC1CC1)NC(=O)[C@@H](Cc1ccccc1)NC(=O)[C@H](N)Cc1ccccc1)C(=O)N1CCC(N)(C(=O)O)C1 (stereo partly shown) [Compound 134] (H-[dF][dF][dAla(cPr)][dR]-{Pyrrolidino(3-NH2-3-COOH)}) | 2.35 nM |  |  | 12.6 nM |  |  |  | 
20 | CCNC(=O)C(=O)N1CCN(C(=O)[C@@H](CCCCN)NC(=O)[C@@H](CC(C)C)NC(=O)[C@@H](Cc2ccccc2)NC(=O)[C@H](N)Cc2ccccc2)CC1 [Compound 13-43] | 0.33 nM |  |  | 8.7 nM | > 10000 nM | > 10000 nM |  | 
21 | NCCCC[C@@H](NC(=O)[C@@H](CC1CC1)NC(=O)[C@@H](Cc1ccccc1)NC(=O)[C@H](N)Cc1ccccc1)C(=O)N1CCC(N)(C(=O)O)C1 (stereo partly shown) [Compound 119] (H-[dF][dF][dAla(cPr)][dK]-{Pyrrolidino(3-NH2-3-COOH)}) | 2.36 nM |  |  | 23.1 nM |  |  |  | 
22 | CC(C)C[C@@H](NC(=O)[C@@H](Cc1ccccc1)NC(=O)[C@H](N)Cc1ccccc1)C(=O)N[C@H](CCCCN)C(=O)N1CCN(C(=O)N(C)C)CC1 [Compound 13-59] | 0.36 nM |  |  | 14.3 nM | > 10000 nM | > 10000 nM |  | 
23 | COC(=O)C1(N)CCN(C(=O)[C@@H](CCCCN)NC(=O)[C@@H](CC(C)C)NC(=O)[C@@H](Cc2ccccc2)NC(=O)[C@H](N)Cc2ccccc2)C1 (stereo partly shown) [Compound 13-62] | 0.2 nM | > 10000 nM | > 10000 nM | 2.96 nM |  |  |  | 
24 | CC(C)C[C@@H](NC(=O)[C@@H](Cc1ccccc1)NC(=O)[C@H](N)Cc1ccccc1)C(=O)N[C@H](CCCCN)C(=O)NCc1ccnc(C(=O)O)c1 [Compound 13-8] | 6.04 nM |  |  | 14.7 nM | > 10000 nM | > 10000 nM |  | 
25 | CCNC(=O)C(=O)NC1CCN(C(=O)[C@@H](CCCCN)NC(=O)[C@@H](CC(C)C)NC(=O)[C@@H](Cc2ccccc2)NC(=O)[C@H](N)Cc2ccccc2)CC1 [Compound 13-35] | 0.31 nM |  |  | 10.8 nM | 8430 nM | > 10000 nM |  | 
26 | COC(=O)/C=C/C(=O)N1CCC(NC(=O)[C@@H](CCCCN)NC(=O)[C@@H](CC(C)C)NC(=O)[C@@H](Cc2ccccc2)NC(=O)[C@H](N)Cc2ccccc2)CC1 [Compound 13-18] | 2 nM |  |  | 39.3 nM | > 10000 nM | > 10000 nM |  | 
27 | CCOC(=O)C1(N)CCN(C(=O)[C@@H](CCCCN)NC(=O)[C@@H](CC(C)C)NC(=O)[C@@H](Cc2ccccc2)NC(=O)[C@H](N)Cc2ccccc2)C1 (stereo partly shown) [Compound 35] | 0.19 nM | 8180 nM | > 10000 nM | 11.7 nM |  |  |  | 
28 | CCOC(=O)N1CCN(C(=O)[C@@H](CCCCN)NC(=O)[C@@H](CC(C)C)NC(=O)[C@@H](Cc2ccccc2)NC(=O)[C@H](N)Cc2ccccc2)CC1 [Compound 13-47] |  |  |  |  | > 10000 nM | > 10000 nM | 0.27 nM | 4.84 nM
29 | COCCNC(=O)[C@@H](CCCCN)NC(=O)[C@@H](CC(C)C)NC(=O)[C@@H](Cc1ccccc1)NC(=O)[C@H](N)Cc1ccccc1 [Compound 13-2] | 1.37 nM |  |  | 8.31 nM | > 10000 nM | > 10000 nM |  | 
30 | COC(=O)C1(N)CCN(C(=O)[C@@H](CCCCN)NC(=O)[C@@H](CC(C)C)NC(=O)[C@@H](Cc2ccccc2)NC(=O)[C@H](N)Cc2ccc(F)cc2)C1 (stereo partly shown) [Compound 181] |  |  |  | 8.7 nM |  |  |  | 
31 | CC(C)C[C@@H](NC(=O)[C@@H](Cc1ccccc1)NC(=O)[C@H](N)Cc1ccccc1)C(=O)N[C@H](CCCCN)C(=O)N1CCC(O)(CO)CC1 [Compound 13-65] |  |  |  | 1.68 nM |  |  |  | 
32 | CC(C)C[C@@H](NC(=O)[C@@H](Cc1ccccc1)NC(=O)[C@H](N)Cc1ccccc1)C(=O)N[C@H](CCCCN)C(=O)NCCC[C@H](N)C(=O)O [Compound 13-44] |  |  |  | 4.75 nM |  |  |  | 
33 | COC(=O)C1(N)CCN(C(=O)[C@@H](CCCCN)NC(=O)C(CC(C)C)NC(=O)[C@@H](Cc2ccccc2)NC(=O)C2(N)Cc3ccccc3C2)C1 (stereo partly shown) [Compound 156] (H-[Aic][dF][ξL][dK]-{Pyrrolidinyl(3-NH2,3-CO2Me)}) | 2.3 nM |  |  |  | 5370 nM | > 10000 nM |  | 
34 | COC(=O)C1(N)CCN(C(=O)[C@@H](CCCCN)NC(=O)[C@H]2CCCN2C(=O)[C@@H](Cc2ccccc2)NC(=O)[C@H](N)Cc2ccccc2)C1 (stereo partly shown) [Compound 92] (H-[dF][dF][dP][dK]-{Pyrrolidinyl(3-NH2,3-CO2Me)}) | 33 nM |  |  |  | > 10000 nM | > 10000 nM |  | 
35 | CC(C)C[C@@H](NC(=O)[C@@H](Cc1ccccc1)NC(=O)[C@H](N)Cc1ccccc1)C(=O)N[C@H](CCCCN)C(=O)N1CCC2(CC1)CNC(=O)N2 [Compound 13-46] | 0.31 nM |  |  |  | > 10000 nM | > 10000 nM |  | 
